US20220205982A1 (CHILDREN'S HOSPITAL MEDICAL CENTER, priority 2019, published 2022)
Where two headings read alike, the source gives them in different places.

How the values were obtained:
plasma proteins = details: cited from earlier work
[1] = Clinical outcome and toxicity after melphalan full dose in RIC allogeneic HCT (engraftment, chimerism, mucositis, VOD, GVHD); type: in vivo, human
Procedure: Patients undergoing allogeneic HCT for non-malignant disorders with a uniform RIC regimen that included alemtuzumab, fludarabine and melphalan were enrolled in this study. Full standard dose of melphalan was set as follows: • 140 mg/m^2 in patients having a body weight >10 kg, • 4.7 mg/kg in patients having a body weight <10 kg, and • 70 mg/m^2 in one patient with a radio sensitivity disorder.
Blood samples were obtained for PK measurement after the administration of test dose and the full standard dose of melphalan. A total of 10 blood samples were obtained around each dose of melphalan: at baseline (5-10 min prior to start of the melphalan infusion of) and then approximately at 5 min, 15 min, 30 min, 45 min, 60 min, 2 hour, 2.5, 4, and 6 hours after the end of the melphalan infusion. Samples were collected on ice and transported to the institution's mass spectrometry laboratory for instant analysis by PS-MS/MS and conventional LC-MS/MS. Patient data collected for analysis included baseline organ function, presence of oral and gastrointestinal mucositis, renal and liver dysfunction including VOD, initial donor chimerism, graft rejection, and acute and chronic GVHD (aGVHD and cGVHD). The Common Terminology Criteria for Adverse Events (CTCAE) version 4.0 was used to evaluate adverse events. Acute and chronic GVHD were assessed by standardized published criteria. See, e.g., Glucksberg H, et al. Transplantation. 1974; 18:295-304 and Filipovich A H, et al. Biol Blood Marrow Transplant. 2005; 11:945-956. Interim analyses were completed after enrollment of 5 patients and 10 patients respectively to validate data following 25% and 50% of intended total patient enrollment. The AUC range that led to full donor chimerism without excess toxicity in majority of patients was selected to be the desired target AUC for full dose adjustment. In patients with baseline impaired organ function, personalized full dose melphalan was adjusted to limit toxicity if test dose PK predicted standard full dose AUC was higher than the desired target AUC range.

[2] = ambient temperature; hydrolyzed to monohydroxymelphalan, then dihydroxymelphalan; cited from earlier work
[3] = Real-time PK study of melphalan in whole blood by PS-MS/MS in patients undergoing HSCT; type: in vivo; details: human, intravenous
Procedure: Patients undergoing HSCT were administered by intravenous infusion a low dose of melphalan (referred to as the ‘test’ dose) to first determine each patient's individualized pharmacokinetics of the drug. After that the personalized optimal full dose was calculated from these measurements and then administered. The test dose equated to 10% of the expected standard full dose for each patient. Blood samples for pharmacokinetic measurement were collected after the test dose and again after the full standard dose of melphalan. Samples were collected at baseline, 5-10 mins before drug infusion, and then 5 min, 15 min, 30 min, 45 min, 1 h, 2h, 2.5h, 4h, and 6h post-infusion. […] Plasma samples from the same blood draw were also obtained after centrifugation at 3000 rpm for 15 min and stored at −80° C. degree until analyzed by both PS-MS/MS and LC-ESI-MS/MS. […]
PS-MS/MS was performed on an automated PS ion source (Prosolia, Inc. Indianapolis, Ind.) interfaced with a TSQ Quantum Ultra mass spectrometer (Thermo Scientific, San Jose, Calif.). […] A total of 50 scans in positive ion mode were acquired over 1 min for each m/z transition monitored. The transitions m/z 305.3 →246.2 for melphalan and the corresponding transition m/z 313.3→254.2 for the I.S. were used for quantification, while the transition m/z 305.3→194.2 served as a qualifier for melphalan confirmation. […]

[4] = cited from earlier work
[5] = five patients, adjusted full dose
[6] = sixth patient, initial HCT, full dose 0.44 mg/kg
[7] = sixth patient, second HCT, full dose 1.2 mg/kg

N[C@@H](Cc1ccc(N(CCCl)CCCl)cc1)C(=O)O [melphalan, 4-[Bis(2-chloroethyl)amino]-L-phenylalanine]
interactions with immunoglobulins (plasma proteins): negligible | melphalan (covalently) irreversibly bound to plasma proteins (plasma proteins; plasma): Approximately 30% | donor chimerism at engraftment [1, 5]: ≥ 99% | patients who developed VOD [1, 5]: None | patients with grade 3 mucositis [1, 5]: all 5 | patients who developed GVHD ([1]; four patients): 15% | patients who developed grade 1 acute GVHD of skin ([1]; human, in vivo): Two | patients who developed limited chronic GVHD ([1]; human, in vivo): two | VOD of the liver or other excessive toxicity [1, 6]: did not develop VOD of the liver or other excessive toxicity | graft outcome [1, 6]: developed secondary graft failure | whole blood donor chimerism [1, 6]: 79% | VOD of the liver or other excessive toxicity [1, 7]: without developing VOD of the liver or other excessive toxicity | donor chimerism [1, 7]: 100% | patients who developed VOD of the liver ([1]; standard dose melphalan): Two | patients who developed grade 1 mucositis ([1]; standard dose melphalan): one | patients who developed grade 2 mucositis ([1]; standard dose melphalan): 5 patients | patients who developed grade 3 mucositis ([1]; standard dose melphalan): Ten | patients who developed grade 4 mucositis ([1]; standard dose melphalan): one | patients who developed primary graft failure ([1]; standard dose melphalan): None | donor chimerism at engraftment ([1]; standard dose melphalan, all patients): > 95% | stability in blood and plasma [2]: unstable | AUC ([3]; 10 % of the expected standard full dose, lower test doses, PS-MS/MS, n=4, read-out: calculated mean AUC): 410 ± 230 ng·h/mL | AUC ([3]; full dose, PS-MS/MS method, n=5, read-out: calculated mean AUC): 4900 ± 1500 ng·h/mL | inter-patient variability in melphalan exposure ([4]; adults undergoing autologous HCT for multiple myeloma): up to 5 fold | contribution of renal elimination to melphalan clearance ([4]; in vivo): low | penetration into cerebrospinal fluid (CSF) ([4]; in vivo): low | steady-state volume of distribution ([4]; in vivo): about 0.5 L/kg
